Measurements taken from article PMC7434893 (British Journal of Cancer, 2020).
Values joined by “and” are separate entries in the source; they are usually repeats but may differ in a detail not shown here. Equal entries are not always repeated. Where two headings read alike, the source gives them in different places.

Experiments:
MC/CAR = assay: 8-day growth inhibition; assay type: cell-based; settings: Myeloma, 8-day assay
DB = assay: 8-day growth inhibition; assay type: cell-based; settings: DLBCL (GC), 8-day assay
PARP1 = settings: read-out: IC50, enzymatic activity of PARP1; cited from earlier work

SMILES: O=c1[nH]nc2c3c(cccc13)N=C(CN1Cc3ccccc3C1)N2 [E7449]
- IC50 (MC/CAR): 2300 nM
- IC50 (DB): 1600 nM
- Abdominal pain, treatment-related AE (50 mg (n = 3)): 0%
- Anaemia, treatment-related AE (50 mg (n = 3)): 33.3%
- Chromaturia, treatment-related AE (50 mg (n = 3)): 0%
- Constipation, treatment-related AE (50 mg (n = 3)): 33.3%
- Decreased appetite, treatment-related AE (50 mg (n = 3)): 33.3%
- Depression, treatment-related AE (50 mg (n = 3)): 0%
- Diarrhoea, treatment-related AE (50 mg (n = 3)): 33.3%
- Dizziness, treatment-related AE (50 mg (n = 3)): 0%
- Dry skin, treatment-related AE (50 mg (n = 3)): 0%
- Dysgeusia, treatment-related AE (50 mg (n = 3)): 0%
- Erythematous rash, treatment-related AE (50 mg (n = 3)): 0%
- Fatigue, treatment-related AE (50 mg (n = 3)): 33.3%
- Increased blood alkaline phosphatase, treatment-related AE (50 mg (n = 3)): 0%
- Maculopapular rash, treatment-related AE (50 mg (n = 3)): 0%
- Nausea, treatment-related AE (50 mg (n = 3)): 33.3%
- Onycholysis, treatment-related AE (50 mg (n = 3)): 0%
- Periorbital oedema, treatment-related AE (50 mg (n = 3)): 0%
- Photosensitivity reaction, treatment-related AE (50 mg (n = 3)): 33.3%
- Pruritus, treatment-related AE (50 mg (n = 3)): 0%
- Skin hyperpigmentation, treatment-related AE (50 mg (n = 3)): 0%
- Vomiting, treatment-related AE (50 mg (n = 3)): 33.3%
- Patients with dose-limiting toxicity, n (%) (50 mg cohort, 3 evaluable): 0 n (%)
- Abdominal pain, treatment-related AE (100 mg (n = 3)): 33.3%
- Anaemia, treatment-related AE (100 mg (n = 3)): 0%
- Chromaturia, treatment-related AE (100 mg (n = 3)): 0%
- Constipation, treatment-related AE (100 mg (n = 3)): 33.3%
- Decreased appetite, treatment-related AE (100 mg (n = 3)): 0%
- Depression, treatment-related AE (100 mg (n = 3)): 33.3%
- Diarrhoea, treatment-related AE (100 mg (n = 3)): 33.3%
- Dizziness, treatment-related AE (100 mg (n = 3)): 0%
- Dry skin, treatment-related AE (100 mg (n = 3)): 33.3%
- Dysgeusia, treatment-related AE (100 mg (n = 3)): 0%
- Erythematous rash, treatment-related AE (100 mg (n = 3)): 0%
- Fatigue, treatment-related AE (100 mg (n = 3)): 66.7%
- Increased blood alkaline phosphatase, treatment-related AE (100 mg (n = 3)): 0%
- Maculopapular rash, treatment-related AE (100 mg (n = 3)): 33.3%
- Nausea, treatment-related AE (100 mg (n = 3)): 33.3%
- Onycholysis, treatment-related AE (100 mg (n = 3)): 0%
- Periorbital oedema, treatment-related AE (100 mg (n = 3)): 0%
- Photosensitivity reaction, treatment-related AE (100 mg (n = 3)): 33.3%
- Pruritus, treatment-related AE (100 mg (n = 3)): 33.3%
- Skin hyperpigmentation, treatment-related AE (100 mg (n = 3)): 33.3%
- Vomiting, treatment-related AE (100 mg (n = 3)): 0%
- Patients with dose-limiting toxicity, n (%) (100 mg cohort, 3 evaluable): 0 n (%)
- Abdominal pain, treatment-related AE (200 mg (n = 4)): 0%
- Anaemia, treatment-related AE (200 mg (n = 4)): 0%
- Chromaturia, treatment-related AE (200 mg (n = 4)): 0%
- Constipation, treatment-related AE (200 mg (n = 4)): 0%
- Decreased appetite, treatment-related AE (200 mg (n = 4)): 0%
- Depression, treatment-related AE (200 mg (n = 4)): 25.0%
- Diarrhoea, treatment-related AE (200 mg (n = 4)): 0%
- Dizziness, treatment-related AE (200 mg (n = 4)): 0%
- Dry skin, treatment-related AE (200 mg (n = 4)): 0%
- Dysgeusia, treatment-related AE (200 mg (n = 4)): 0%
- Erythematous rash, treatment-related AE (200 mg (n = 4)): 0%
- Fatigue, treatment-related AE (200 mg (n = 4)): 0%
- Increased blood alkaline phosphatase, treatment-related AE (200 mg (n = 4)): 0%
- Maculopapular rash, treatment-related AE (200 mg (n = 4)): 25.0%
- Nausea, treatment-related AE (200 mg (n = 4)): 50.0%
- Onycholysis, treatment-related AE (200 mg (n = 4)): 0%
- Periorbital oedema, treatment-related AE (200 mg (n = 4)): 0%
- Photosensitivity reaction, treatment-related AE (200 mg (n = 4)): 0%
- Pruritus, treatment-related AE (200 mg (n = 4)): 0%
- Skin hyperpigmentation, treatment-related AE (200 mg (n = 4)): 0%
- Vomiting, treatment-related AE (200 mg (n = 4)): 25.0%
- Patients with dose-limiting toxicity, n (%) (200 mg cohort, 4 evaluable): 0 n (%)
- Abdominal pain, treatment-related AE (400 mg (n = 4)): 25.0%
- Anaemia, treatment-related AE (400 mg (n = 4)): 0%
- Chromaturia, treatment-related AE (400 mg (n = 4)): 50.0%
- Constipation, treatment-related AE (400 mg (n = 4)): 0%
- Decreased appetite, treatment-related AE (400 mg (n = 4)): 25.0%
- Depression, treatment-related AE (400 mg (n = 4)): 50.0%
- Diarrhoea, treatment-related AE (400 mg (n = 4)): 50.0%
- Dizziness, treatment-related AE (400 mg (n = 4)): 0%
- Dry skin, treatment-related AE (400 mg (n = 4)): 0%
- Dysgeusia, treatment-related AE (400 mg (n = 4)): 0%
- Erythematous rash, treatment-related AE (400 mg (n = 4)): 0%
- Fatigue, treatment-related AE (400 mg (n = 4)): 75.0%
- Increased blood alkaline phosphatase, treatment-related AE (400 mg (n = 4)): 25.0%
- Maculopapular rash, treatment-related AE (400 mg (n = 4)): 25.0%
- Nausea, treatment-related AE (400 mg (n = 4)): 25.0%
- Onycholysis, treatment-related AE (400 mg (n = 4)): 25.0%
- Periorbital oedema, treatment-related AE (400 mg (n = 4)): 25.0%
- Photosensitivity reaction, treatment-related AE (400 mg (n = 4)): 25.0%
- Pruritus, treatment-related AE (400 mg (n = 4)): 0%
- Skin hyperpigmentation, treatment-related AE (400 mg (n = 4)): 0%
- Vomiting, treatment-related AE (400 mg (n = 4)): 0%
- Patients with dose-limiting toxicity, n (%) (400 mg cohort, 3 evaluable): 0 n (%)
- Abdominal pain, treatment-related AE (600 mg (n = 21)): 0%
- Anaemia, treatment-related AE (600 mg (n = 21)): 9.5%
- Chromaturia, treatment-related AE (600 mg (n = 21)): 66.7%
- Constipation, treatment-related AE (600 mg (n = 21)): 9.5%
- Decreased appetite, treatment-related AE (600 mg (n = 21)): 23.8%
- Depression, treatment-related AE (600 mg (n = 21)): 4.8%
- Diarrhoea, treatment-related AE (600 mg (n = 21)): 23.8%
- Dizziness, treatment-related AE (600 mg (n = 21)): 4.8%
- Dry skin, treatment-related AE (600 mg (n = 21)): 4.8%
- Dysgeusia, treatment-related AE (600 mg (n = 21)): 14.3%
- Erythematous rash, treatment-related AE (600 mg (n = 21)): 9.5%
- Fatigue, treatment-related AE (600 mg (n = 21)): 66.7%
- Increased blood alkaline phosphatase, treatment-related AE (600 mg (n = 21)): 14.3%
- Maculopapular rash, treatment-related AE (600 mg (n = 21)): 33.3%
- Nausea, treatment-related AE (600 mg (n = 21)): 33.3%
- Onycholysis, treatment-related AE (600 mg (n = 21)): 9.5%
- Periorbital oedema, treatment-related AE (600 mg (n = 21)): 19.0%
- Photosensitivity reaction, treatment-related AE (600 mg (n = 21)): 23.8%
- Pruritus, treatment-related AE (600 mg (n = 21)): 19.0%
- Skin hyperpigmentation, treatment-related AE (600 mg (n = 21)): 9.5%
- Vomiting, treatment-related AE (600 mg (n = 21)): 14.3%
- Dose-limiting-toxicity description (600 mg cohort): Grade 3 anaphylactic reaction
- Patients with dose-limiting toxicity, n (%) (600 mg cohort, 6 evaluable): 1 (16.7) n (%)
- Treatment-related grade 3 fatigue, patients (600 mg n = 2, 800 mg n = 2): 4
- Abdominal pain, treatment-related AE (800 mg (n = 6)): 16.7%
- Anaemia, treatment-related AE (800 mg (n = 6)): 0%
- Chromaturia, treatment-related AE (800 mg (n = 6)): 66.7%
- Constipation, treatment-related AE (800 mg (n = 6)): 0%
- Decreased appetite, treatment-related AE (800 mg (n = 6)): 50.0%
- Depression, treatment-related AE (800 mg (n = 6)): 16.7%
- Diarrhoea, treatment-related AE (800 mg (n = 6)): 50.0%
- Dizziness, treatment-related AE (800 mg (n = 6)): 33.3%
- Dry skin, treatment-related AE (800 mg (n = 6)): 33.3%
- Dysgeusia, treatment-related AE (800 mg (n = 6)): 0%
- Erythematous rash, treatment-related AE (800 mg (n = 6)): 16.7%
- Fatigue, treatment-related AE (800 mg (n = 6)): 100.0%
- Increased blood alkaline phosphatase, treatment-related AE (800 mg (n = 6)): 0%
- Maculopapular rash, treatment-related AE (800 mg (n = 6)): 16.7%
- Nausea, treatment-related AE (800 mg (n = 6)): 33.3%
- Onycholysis, treatment-related AE (800 mg (n = 6)): 0%
- Periorbital oedema, treatment-related AE (800 mg (n = 6)): 0%
- Photosensitivity reaction, treatment-related AE (800 mg (n = 6)): 33.3%
- Pruritus, treatment-related AE (800 mg (n = 6)): 0%
- Skin hyperpigmentation, treatment-related AE (800 mg (n = 6)): 33.3%
- Vomiting, treatment-related AE (800 mg (n = 6)): 33.3%
- Dose-limiting-toxicity description (800 mg cohort): Grade 3 fatigue (n = 1) Grade 2 fatigue (n = 3)
- Patients with dose-limiting toxicity, n (%) (800 mg cohort, 6 evaluable): 4 (66.7) n (%)
- Treatment-emergent AEs associated with skin rash events, patients (17/41, doses ≥100 mg): 41.5%
- Grade 4 AE (hypokalaemia, not treatment-related), patients (200-mg dose cohort): 1
- Treatment-emergent chromaturia, patients (400-mg dose cohort): 50.0%
- Treatment-emergent AEs associated with skin rash events, patients (600-mg dose cohort): 47.6%
- Treatment-emergent chromaturia, patients (600-mg dose cohort): 66.7%
- Treatment-emergent AEs associated with skin rash events, patients (800-mg dose cohort): 66.7%
- Treatment-emergent chromaturia, patients (800-mg dose cohort): 83.3%
- Abdominal pain, treatment-related AE (Total (N = 41)): 7.3%
- Anaemia, treatment-related AE (Total (N = 41)): 7.3%
- Chromaturia, treatment-related AE (Total (N = 41)): 49% and 48.8%
- Constipation, treatment-related AE (Total (N = 41)): 9.8%
- Decreased appetite, treatment-related AE (Total (N = 41)): 24% and 24.4%
- Depression, treatment-related AE (Total (N = 41)): 14.6%
- Diarrhoea, treatment-related AE (Total (N = 41)): 29% and 29.3%
- Dizziness, treatment-related AE (Total (N = 41)): 7.3%
- Dry skin, treatment-related AE (Total (N = 41)): 9.8%
- Dysgeusia, treatment-related AE (Total (N = 41)): 7.3%
- Erythematous rash, treatment-related AE (Total (N = 41)): 7.3%
- Fatigue, treatment-related AE (Total (N = 41)): 63% and 63.4%
- Increased blood alkaline phosphatase, treatment-related AE (Total (N = 41)): 9.8%
- Maculopapular rash, treatment-related AE (Total (N = 41)): 27% and 26.8%
- Nausea, treatment-related AE (Total (N = 41)): 34% and 34.1%
- Onycholysis, treatment-related AE (Total (N = 41)): 7.3%
- Periorbital oedema, treatment-related AE (Total (N = 41)): 12.2%
- Photosensitivity reaction, treatment-related AE (Total (N = 41)): 24% and 24.4%
- Pruritus, treatment-related AE (Total (N = 41)): 12.2%
- Skin hyperpigmentation, treatment-related AE (Total (N = 41)): 12.2%
- Vomiting, treatment-related AE (Total (N = 41)): 17.1%
- Grade 5 AEs (all cohorts): No grade 5 AEs
- Grade 3 fatigue, patients (all cohorts, 7/41): 17.1%
- Treatment discontinued due to AEs, patients (all cohorts, 7/41): 17%
- Treatment-emergent chromaturia, patients (all cohorts, 21/41): 51.2%
- Nonfatal SAEs, patients (all cohorts, 24/41): 58.5%
- Grade 3 AEs, patients (all cohorts, 27 of 41 patients): 65.9%
- Patients with treatment-related AEs (all cohorts, 39 patients): 95.1%
- Grade 1 thrombocytopenia, patients (at the MTD, 1/21): 5%
- Anaemia (≤grade 2), patients (at the MTD, 4/21): 19%
- Patients with DLTs (of the 25 evaluable patients, all dose cohorts): 5
- Recommended phase 2 dose (oral, once daily): 600 mg
- Maximum-tolerated dose (MTD) (oral, once daily, 28-day cycles): 600 mg
- IC50 (PARP1): 1 nM
